For the assay, the target named is T1, RORc ligand binding domain (Homo sapiens, UniProt P51449).
T1 sequence (P51449 269-508 limits assumed): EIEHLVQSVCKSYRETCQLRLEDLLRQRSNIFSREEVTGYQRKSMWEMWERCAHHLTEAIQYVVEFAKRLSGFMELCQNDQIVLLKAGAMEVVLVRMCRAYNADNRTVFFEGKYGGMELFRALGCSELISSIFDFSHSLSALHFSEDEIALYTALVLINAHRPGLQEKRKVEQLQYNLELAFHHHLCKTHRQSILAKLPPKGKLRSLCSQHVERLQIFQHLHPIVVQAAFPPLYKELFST
The assay is described as follows: In Vitro RORc Ligand Binding Assay. To be noted: RORc IC50, radioligand 25-[3H]hydroxycholesterol 6 nM; 0.6 ug/mL RORc receptor; 3 h at 25° C.

In turn, `CC1(C)[C@H]2CC[C@]1(c1cncc(-c3cnco3)n1)c1nnc(-c3c(F)cccc3F)cc12` [Example 184, 5-(6-((5R,8S)-3-(2,6-difluorophenyl)-9,9-dimethyl-5,6,7,8-tetrahydro-5,8-methanocinnolin-8-yl)pyrazin-2-yl)oxazole] registered an IC50 of 3.3 nM.

In turn, `Cc1nc(=O)[nH]n1-c1nccc([C@@]23CC[C@@H](c4cc(-c5c(F)cccc5F)nnc42)C3(C)C)n1` [Example 360] came in with an IC50 of 127 nM.

`CC(C)(O)c1coc(-c2cncc([C@@]34CC[C@@H](c5cc(-c6c(F)cccc6F)nnc53)C4(C)C)n2)n1` [Example 196, 2-(2-(6-((5R,8S)-3-(2,6-difluorophenyl)-9,9-diimethyl-5,6,7,8-tetrahydro-5,8-methanocinnolin-8-yl)pyrazin-2-yl)oxazol-4-yl)propan-2-ol] returned an IC50 of 6.5 nM.

In the case of `CC(C)(C)OC(=O)N1CCC(c2nccc([C@@]34CC[C@@H](c5cc(-c6c(F)cccc6F)nnc53)C4(C)C)n2)CC1` [Example 345], the IC50 was 13 nM.

For `Cc1ncnn1-c1cc([C@@]23CC[C@@H](c4cc(-c5c(F)cccc5F)nnc42)C3(C)C)cnn1` [Example 390, (5R,8S)-3-(2,6-difluorophenyl)-9,9-dimethyl-8-(6-(5-methyl-1H-1,2,4-triazol-1-yl)pyridazin-4-yl)-5,6,7,8-tetrahydro-5,8-methanocinnoline], the IC50 was found to be 317 nM. Against the preceding compound, the IC50 is about 24-fold higher.

For the compound `CC1(C)[C@H]2CC[C@]1(c1cncc(C(=O)NC3COC3)n1)c1nnc(-c3c(F)cccc3F)cc12` [Example 29, 6-((5R,8S)-3-(2,6-difluorophenyl)-9,9-dimethyl-5,6,7,8-tetrahydro-5,8-methanocinnolin-8-yl)-N-(oxetan-3-yl)pyrazine-2-carboxamide], the IC50 amounted to 43.1 nM.

`CC(C)OC(=O)c1coc(-c2cncc([C@@]34CC[C@@H](c5cc(-c6c(F)cccc6F)nnc53)C4(C)C)n2)n1` [Example 346, isopropyl 2-(6-((5R,8S)-3-(2,6-difluorophenyl)-9,9-dimethyl-5,6,7,8-tetrahydro-5,8-methanocinnolin-8-yl)pyrazin-2-yl)oxazole-4-carboxylate] registered an IC50 of 3.7 nM.

Consider `C[C@@H](O)c1ccn(-c2nccc([C@@]34CC[C@@H](c5cc(-c6c(F)cccc6F)nnc53)C4(C)C)n2)n1` [Example 348], for which the IC50 turned out to be 10.6 nM. Compared with the last compound, the IC50 is about 2.9-fold higher.

The compound `CC(C)(O)Cc1ccn(-c2nccc([C@@]34CC[C@@H](c5cc(-c6c(F)cccc6F)nnc53)C4(C)C)n2)n1` [Example 324] came in with an IC50 of 9.5 nM.

`CC(C)(O)c1cn(-c2nccc([C@@]34CC[C@@H](c5cc(-c6c(F)cccc6F)nnc53)C4(C)C)n2)cn1` [Example 239]: the IC50 came to 13.9 nM.

Take `CN(C)C(=O)c1cncc([C@@]23CC[C@@H](c4cc(-c5c(F)cccc5F)nnc42)C3(C)C)n1` [Example 28, 6-((5R,8S)-3-(2,6-difluorophenyl)-9,9-dimethyl-5,6,7,8-tetrahydro-5,8-methanocinnolin-8-yl)-N,N-dimethylpyrazine-2-carboxamide]: the IC50 is 41.7 nM.

The compound `Cc1nc(-c2ccnc([C@@]34CC[C@@H](c5cc(-c6c(F)cccc6F)nnc53)C4(C)C)n2)co1` [Example 275, 4-(2-((5R,8R)-3-(2,6-difluorophenyl)-9,9-dimethyl-5,6,7,8-tetrahydro-5,8-methanocinnolin-8-yl)pyrimidin-4-yl)-2-methyloxazole] yielded an IC50 of 10.3 nM.

In the case of `CC(C)(O)c1ccc(-c2cncc([C@@]34CC[C@@H](c5cc(-c6c(F)cccc6F)nnc53)C4(C)C)n2)cn1` [Example 392, 2-(5-(6-((5R,8S)-3-(2,6-difluorophenyl)-9,9-dimethyl-5,6,7,8-tetrahydro-5,8-methanocinnolin-8-yl)pyrazin-2-yl)pyridin-2-yl)propan-2-ol], the IC50 came out at 5.5 nM. This IC50 lies about 1.9-fold lower than the previous one.

`CC[C@](C)(O)c1coc(-c2cncc([C@@]34CC[C@@H](c5cc(-c6c(F)cccc6F)nnc53)C4(C)C)n2)n1` [Example 429, (S)-2-(2-(6-((5R,8S)-3-(2,6-difluorophenyl)-9,9-dimethyl-5,6,7,8-tetrahydro-5,8-methanocinnolin-8-yl)pyrazin-2-yl)oxazol-4-yl)butan-2-ol] returned an IC50 of 13.8 nM.

In the case of `CC1(C)[C@H]2CC[C@]1(c1ccnc(-n3cc(CO)cn3)n1)c1nnc(-c3c(F)cccc3F)cc12` [Example 238], the IC50 turned out to be 39.4 nM.

Turning to `Cc1nc(C#N)c(C#N)nc1[C@@]12CC[C@@H](c3cc(-c4c(F)cccc4F)nnc31)C2(C)C` [Example 167, 5-((5R,8S)-3-(2,6-difluorophenyl)-9,9-dimethyl-5,6,7,8-tetrahydro-5,8-methanocinnolin-8-yl)-6-methylpyrazine-2,3-dicarbonitrile], the IC50 came to 548 nM.

In turn, `CC1(C)[C@H]2CC[C@]1(c1cc(=O)[nH]cn1)c1nnc(-c3c(F)cccc3F)cc12` [Example 226, 6-((5R,8S)-3-(2,6-difluorophenyl)-9,9-dimethyl-5,6,7,8-tetrahydro-5,8-methanocinnolin-8-yl)pyrimidin-4(3H)-one] registered an IC50 of 363 nM.

Compound `CC1(C)[C@H]2CC[C@]1(c1cccnn1)c1nnc(-c3c(F)cccc3F)cc12` [Example 2, (5R,8S)-3-(2,6-difluorophenyl)-9,9-dimethyl-8-(pyridazin-3-yl)-5,6,7,8-tetrahydro-5,8-methanocinnoline] registered a half-maximal inhibitory concentration (IC50) of 13.4 nM.

In turn, `CC(C)(O)c1cc(-c2cncc([C@@]34CC[C@@H](c5cc(-c6c(F)cccc6F)nnc53)C4(C)C)n2)no1` [Example 259, 2-(3-(6-((5R,8S)-3-(2,6-difluorophenyl)-9,9-dimethyl-5,6,7,8-tetrahydro-5,8-methanocinnolin-8-yl)pyrazin-2-yl)isoxazol-5-yl)propan-2-ol] registered an IC50 of 8.7 nM.

The compound `Cc1nnc(-c2nccc([C@@]34CC[C@@H](c5cc(-c6c(F)cccc6F)nnc53)C4(C)C)n2)o1` [Example 138] came in with an IC50 of 41.9 nM.

Turning to `CC1(C)[C@H]2CC[C@]1(c1cccc(N)n1)c1nnc(-c3c(F)cccc3F)cc12` [Example 72, 6-((5R,8S)-3-(2,6-difluorophenyl)-9,9-dimethyl-5,6,7,8-tetrahydro-5,8-methanocinnolin-8-yl)pyridin-2-amine], the IC50 worked out at 2.6 nM.

The compound `CC1(C)[C@H]2CC[C@]1(c1cnc(C#N)cn1)c1nnc(-c3c(F)cccc3F)cc12` [Example 15, 5-((5R,8S)-3-(2,6-difluorophenyl)-9,9-dimethyl-5,6,7,8-tetrahydro-5,8-methanocinnolin-8-yl)pyrazine-2-carbonitrile] returned an IC50 of 1310 nM.

`CC(C)(O)CNS(=O)(=O)c1cccc([C@@]23CC[C@@H](c4cc(-c5c(F)cccc5F)nnc42)C3(C)C)n1` [Example 198, 6-((5R,8S)-3-(2,6-difluorophenyl)-9,9-dimethyl-5,6,7,8-tetrahydro-5,8-methanocinnolin-8-yl)-N-(2-hydroxy-2-methylpropyl)pyridine-2-sulfonamide] showed an IC50 of 26.1 nM.

`CC1(C)[C@H]2CC[C@]1(c1ccnc(-c3ccc(C(N)=O)nc3)n1)c1nnc(-c3c(F)cccc3F)cc12` [Example 373] gave an IC50 of 4 nM.

In turn, `CC[C@@H](O)c1n[nH]c(-c2cncc([C@@]34CC[C@@H](c5cc(-c6c(F)cccc6F)nnc53)C4(C)C)n2)n1` [Example 278, (R)-1-(5-(6-((5R,8S)-3-(2,6-difluorophenyl)-9,9-dimethyl-5,6,7,8-tetrahydro-5,8-methanocinnolin-8-yl)pyrazin-2-yl)-1H-1,2,4-triazol-3-yl)propan-1-ol] had an IC50 of 6.8 nM.

`CC1(C)[C@H]2CC[C@]1(c1cncc(-n3cncn3)n1)c1nnc(-c3c(F)cccc3F)cc12` [Example 195]: the IC50 amounted to 6.3 nM.

Turning to `CC(C)(O)c1coc(-c2cncc([C@@]34CC[C@@H](c5cc(-c6ccccc6F)nnc53)C4(C)C)n2)n1` [Example 396, 2-(2-(6-((5R,8S)-3-(2-fluorophenyl)-9,9-dimethyl-5,6,7,8-tetrahydro-5,8-methanocinnolin-8-yl)pyrazin-2-yl)oxazol-4-yl)propan-2-ol], the IC50 was determined as 4.8 nM. This IC50 and that of the compound before are within 1.5-fold of each other.

On to `CC1(C)[C@H]2CC[C@]1(c1cncc(-c3noc(=O)[nH]3)n1)c1nnc(-c3c(F)cccc3F)cc12` [Example 125, 3-(6-((5R,8S)-3-(2,6-difluorophenyl)-9,9-dimethyl-5,6,7,8-tetrahydro-5,8-methanocinnolin-8-yl)pyrazin-2-yl)-1,2,4-oxadiazol-5(4H)-one], for which the IC50 was found to be 20.9 nM.

On to `CC1(C)[C@H]2CC[C@]1(c1c[nH]c(=O)cn1)c1nnc(-c3c(F)cccc3F)cc12` [Example 5, 5-((5R,8S)-3-(2,6-difluorophenyl)-9,9-dimethyl-5,6,7,8-tetrahydro-5,8-methanocinnolin-8-yl)pyrazin-2(1H)-one], for which the IC50 was 38.4 nM.

In turn, `CC(C)(C)OC(=O)N1CC=C(c2nccc([C@@]34CC[C@@H](c5cc(-c6c(F)cccc6F)nnc53)C4(C)C)n2)CC1` [Example 344] registered an IC50 of 1.7 nM.

`CC1(C)[C@H]2CC[C@]1(c1nc(-c3nc(CO)no3)ncc1F)c1nnc(-c3c(F)cccc3F)cc12` [Example 288, (5-(4-((5R,8S)-3-(2,6-difluorophenyl)-9,9-dimethyl-5,6,7,8-tetrahydro-5,8-methanocinnolin-8-yl)-5-fluoropyrimidin-2-yl)-1,2,4-oxadiazol-32-(1-(4-((5R,8S)-3-(2,6-difluorophenyl)-9,9-dimethyl-5,6,7,8-tetrahydro-5,8-methanocinnolin-8-yl)pyrimidin-2-yl)-1H-pyrazol-3-yl)propan-2-ol-yl)methanol] showed an IC50 of 20.3 nM.

In turn, `CC1(C)[C@H]2CC[C@]1(c1nc(C(F)(F)F)ncc1Br)c1nnc(-c3c(F)cccc3F)cc12` [Example 168] registered an IC50 of 20.1 nM. The IC50 values of the last two compounds are within 1.5-fold of each other.

Take `CNC(=O)c1nc(-c2ncc(F)c([C@@]34CC[C@@H](c5cc(-c6c(F)cccc6F)nnc53)C4(C)C)n2)no1` [Example 277]: the IC50 was 12.4 nM.

These data come from patent publication US10487068B2, “Pyridazine derivatives as RORc modulators” (Genentech, Inc., priority 2015, dated 2019).
